In ChEMBL document CHEMBL5291721, “A preclinical secondary pharmacology resource illuminates target-adverse drug reaction associations of marketed drugs” (Nat Commun, 2023):

Columns and labels:
B1 bradykinin receptor = target: T1, B1 bradykinin receptor (Homo sapiens, UniProt P46663)
T1 sequence (P46663 whole entry): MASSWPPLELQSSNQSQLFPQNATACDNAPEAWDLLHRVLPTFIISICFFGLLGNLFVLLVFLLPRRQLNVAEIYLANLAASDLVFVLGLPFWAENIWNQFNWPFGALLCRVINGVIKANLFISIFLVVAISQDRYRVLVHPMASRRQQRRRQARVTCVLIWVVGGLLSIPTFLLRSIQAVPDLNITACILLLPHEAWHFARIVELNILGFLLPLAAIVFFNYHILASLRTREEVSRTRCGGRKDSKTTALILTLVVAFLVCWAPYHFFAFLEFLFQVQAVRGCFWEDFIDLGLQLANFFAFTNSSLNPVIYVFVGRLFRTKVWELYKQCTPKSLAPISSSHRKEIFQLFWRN

[1] = target: Gamma-aminobutyric acid type B receptor subunit 1 (Homo sapiens, UniProt Q9UBS5)
Sequence of Gamma-aminobutyric acid type B receptor subunit 1 (Q9UBS5 whole entry): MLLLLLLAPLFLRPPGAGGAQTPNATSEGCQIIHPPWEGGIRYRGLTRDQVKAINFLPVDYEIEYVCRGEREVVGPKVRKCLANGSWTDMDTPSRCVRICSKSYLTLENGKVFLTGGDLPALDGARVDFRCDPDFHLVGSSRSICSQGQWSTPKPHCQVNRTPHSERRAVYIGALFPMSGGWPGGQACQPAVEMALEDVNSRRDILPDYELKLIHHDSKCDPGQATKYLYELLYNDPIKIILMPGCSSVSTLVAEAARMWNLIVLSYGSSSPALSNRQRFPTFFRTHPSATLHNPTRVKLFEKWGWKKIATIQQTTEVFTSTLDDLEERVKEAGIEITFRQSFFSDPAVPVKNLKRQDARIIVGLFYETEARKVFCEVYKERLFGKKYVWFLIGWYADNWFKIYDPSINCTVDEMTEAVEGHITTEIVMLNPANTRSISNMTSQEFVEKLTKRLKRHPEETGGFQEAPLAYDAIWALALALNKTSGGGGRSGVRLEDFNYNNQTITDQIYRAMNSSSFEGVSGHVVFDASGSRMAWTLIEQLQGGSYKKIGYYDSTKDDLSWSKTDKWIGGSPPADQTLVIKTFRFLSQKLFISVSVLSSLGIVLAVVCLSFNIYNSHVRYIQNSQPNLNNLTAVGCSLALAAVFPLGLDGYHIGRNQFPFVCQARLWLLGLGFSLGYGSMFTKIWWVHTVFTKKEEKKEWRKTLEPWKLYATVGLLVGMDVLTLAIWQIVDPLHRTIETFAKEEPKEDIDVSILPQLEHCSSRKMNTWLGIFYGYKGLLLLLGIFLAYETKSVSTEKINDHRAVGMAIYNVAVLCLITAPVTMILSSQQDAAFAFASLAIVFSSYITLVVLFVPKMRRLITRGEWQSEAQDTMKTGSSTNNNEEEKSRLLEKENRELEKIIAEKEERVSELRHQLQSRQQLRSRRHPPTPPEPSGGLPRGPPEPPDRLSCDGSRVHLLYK

Adenosine receptor A1 = target: T2, Adenosine receptor A1 (Homo sapiens, UniProt P30542)
T2 sequence (P30542 whole entry): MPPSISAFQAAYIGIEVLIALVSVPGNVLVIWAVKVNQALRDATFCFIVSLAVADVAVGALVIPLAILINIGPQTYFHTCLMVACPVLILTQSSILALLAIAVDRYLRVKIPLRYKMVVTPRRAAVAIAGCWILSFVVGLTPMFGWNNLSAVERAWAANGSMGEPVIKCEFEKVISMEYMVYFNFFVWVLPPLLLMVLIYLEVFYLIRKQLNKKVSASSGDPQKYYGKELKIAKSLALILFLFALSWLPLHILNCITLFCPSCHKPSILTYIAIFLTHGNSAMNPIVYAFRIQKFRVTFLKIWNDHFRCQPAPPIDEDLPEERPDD

Androgen receptor [2] = target: T3, Androgen receptor (Rattus norvegicus, UniProt P15207)
T3 sequence (P15207 whole entry): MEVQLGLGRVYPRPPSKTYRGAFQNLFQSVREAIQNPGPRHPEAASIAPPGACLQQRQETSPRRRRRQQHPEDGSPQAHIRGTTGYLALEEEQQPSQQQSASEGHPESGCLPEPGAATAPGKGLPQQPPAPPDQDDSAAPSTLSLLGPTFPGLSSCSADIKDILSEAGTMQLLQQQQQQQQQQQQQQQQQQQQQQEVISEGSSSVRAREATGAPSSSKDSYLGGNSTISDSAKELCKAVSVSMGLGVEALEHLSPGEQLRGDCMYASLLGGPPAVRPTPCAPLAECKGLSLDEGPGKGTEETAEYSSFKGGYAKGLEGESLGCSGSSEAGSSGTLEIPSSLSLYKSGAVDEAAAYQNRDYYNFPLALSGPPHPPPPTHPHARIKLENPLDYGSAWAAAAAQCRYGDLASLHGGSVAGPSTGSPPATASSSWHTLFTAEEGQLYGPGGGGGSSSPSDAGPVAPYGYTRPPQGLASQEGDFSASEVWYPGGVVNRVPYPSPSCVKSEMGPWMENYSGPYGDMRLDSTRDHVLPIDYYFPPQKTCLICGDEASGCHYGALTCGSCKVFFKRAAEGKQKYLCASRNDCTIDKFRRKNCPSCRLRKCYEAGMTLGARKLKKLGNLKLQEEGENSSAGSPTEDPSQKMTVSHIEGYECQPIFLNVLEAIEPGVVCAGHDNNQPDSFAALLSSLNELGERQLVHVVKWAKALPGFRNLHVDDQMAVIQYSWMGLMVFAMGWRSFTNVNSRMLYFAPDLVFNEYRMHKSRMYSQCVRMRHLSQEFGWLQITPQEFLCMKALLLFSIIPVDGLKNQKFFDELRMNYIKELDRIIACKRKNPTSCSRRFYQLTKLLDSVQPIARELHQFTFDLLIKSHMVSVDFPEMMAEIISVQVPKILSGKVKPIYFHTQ

[3] = target: T4, Muscarinic acetylcholine receptor M5 (Homo sapiens, UniProt P08912)
T4 sequence (P08912 whole entry): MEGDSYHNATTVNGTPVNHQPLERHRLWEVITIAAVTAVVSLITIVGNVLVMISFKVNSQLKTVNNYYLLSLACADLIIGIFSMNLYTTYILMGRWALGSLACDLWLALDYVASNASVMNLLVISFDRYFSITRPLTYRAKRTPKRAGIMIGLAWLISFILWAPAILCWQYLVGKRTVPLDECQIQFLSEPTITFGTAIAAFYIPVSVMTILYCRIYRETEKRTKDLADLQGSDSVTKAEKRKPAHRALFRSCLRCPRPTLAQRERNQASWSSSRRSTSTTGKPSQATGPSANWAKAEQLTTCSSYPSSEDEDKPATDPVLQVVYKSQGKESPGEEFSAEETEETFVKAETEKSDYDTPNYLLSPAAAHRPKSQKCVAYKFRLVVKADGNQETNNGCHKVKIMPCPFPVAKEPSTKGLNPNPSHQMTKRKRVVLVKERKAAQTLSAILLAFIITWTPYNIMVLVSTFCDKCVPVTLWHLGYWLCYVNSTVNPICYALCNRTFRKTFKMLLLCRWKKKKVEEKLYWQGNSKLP

Cannabinoid receptor 1 = Cannabinoid receptor 1 (Homo sapiens, UniProt P21554); type: functional
Sequence of Cannabinoid receptor 1 (P21554 whole entry): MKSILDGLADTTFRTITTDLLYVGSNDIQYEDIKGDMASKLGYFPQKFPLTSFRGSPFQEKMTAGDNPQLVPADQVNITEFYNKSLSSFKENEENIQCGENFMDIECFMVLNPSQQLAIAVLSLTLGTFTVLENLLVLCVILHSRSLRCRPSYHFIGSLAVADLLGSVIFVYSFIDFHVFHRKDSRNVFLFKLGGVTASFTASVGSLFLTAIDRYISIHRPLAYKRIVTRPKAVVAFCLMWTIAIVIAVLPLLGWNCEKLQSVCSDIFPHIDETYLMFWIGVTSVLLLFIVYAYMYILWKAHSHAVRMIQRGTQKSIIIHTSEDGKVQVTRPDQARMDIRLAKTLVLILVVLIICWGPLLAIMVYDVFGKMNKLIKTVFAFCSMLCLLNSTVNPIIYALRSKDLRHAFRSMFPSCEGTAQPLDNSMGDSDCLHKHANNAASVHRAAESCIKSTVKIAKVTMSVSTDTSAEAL

[4] = target: 5-hydroxytryptamine receptor 6 (Homo sapiens, UniProt P50406)
Sequence of 5-hydroxytryptamine receptor 6 (P50406 whole entry): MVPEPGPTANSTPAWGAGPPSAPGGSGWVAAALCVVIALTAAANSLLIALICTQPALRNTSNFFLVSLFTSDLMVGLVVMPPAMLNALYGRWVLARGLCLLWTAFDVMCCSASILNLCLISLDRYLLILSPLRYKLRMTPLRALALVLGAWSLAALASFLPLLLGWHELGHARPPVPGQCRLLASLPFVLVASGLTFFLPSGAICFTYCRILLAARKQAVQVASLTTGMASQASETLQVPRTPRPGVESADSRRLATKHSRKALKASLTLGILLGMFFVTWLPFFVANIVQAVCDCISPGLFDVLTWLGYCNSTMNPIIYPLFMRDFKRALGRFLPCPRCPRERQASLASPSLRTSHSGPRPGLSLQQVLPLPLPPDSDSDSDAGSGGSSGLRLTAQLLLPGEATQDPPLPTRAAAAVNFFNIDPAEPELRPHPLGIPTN

[5] = target: 5-hydroxytryptamine receptor 7 (Homo sapiens, UniProt P34969)
Sequence of 5-hydroxytryptamine receptor 7 (P34969 whole entry): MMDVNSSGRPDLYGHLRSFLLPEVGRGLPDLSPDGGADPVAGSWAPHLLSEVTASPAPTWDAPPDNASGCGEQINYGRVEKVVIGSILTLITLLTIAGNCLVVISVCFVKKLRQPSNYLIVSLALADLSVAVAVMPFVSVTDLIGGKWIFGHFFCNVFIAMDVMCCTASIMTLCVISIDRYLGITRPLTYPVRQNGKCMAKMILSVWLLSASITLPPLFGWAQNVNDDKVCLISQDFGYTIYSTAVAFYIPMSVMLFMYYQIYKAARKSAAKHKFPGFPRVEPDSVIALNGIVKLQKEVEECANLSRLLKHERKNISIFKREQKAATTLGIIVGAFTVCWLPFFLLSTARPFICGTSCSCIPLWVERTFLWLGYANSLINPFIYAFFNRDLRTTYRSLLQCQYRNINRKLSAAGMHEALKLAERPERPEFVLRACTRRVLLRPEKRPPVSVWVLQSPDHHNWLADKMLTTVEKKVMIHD

Thromboxane A2 receptor = target: T5, Thromboxane A2 receptor (Homo sapiens, UniProt P21731); type: functional, cell-based
T5 sequence (P21731 whole entry): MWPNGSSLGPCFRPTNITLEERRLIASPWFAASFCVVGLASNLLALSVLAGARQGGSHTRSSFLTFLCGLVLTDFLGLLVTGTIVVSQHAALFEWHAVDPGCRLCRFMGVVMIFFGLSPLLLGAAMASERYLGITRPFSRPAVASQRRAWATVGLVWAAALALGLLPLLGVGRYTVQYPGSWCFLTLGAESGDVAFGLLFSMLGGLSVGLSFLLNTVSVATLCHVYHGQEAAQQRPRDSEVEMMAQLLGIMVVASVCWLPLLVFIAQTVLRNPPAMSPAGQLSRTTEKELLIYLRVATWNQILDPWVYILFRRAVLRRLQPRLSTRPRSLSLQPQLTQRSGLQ

Androgen receptor [6] = target: T3, Androgen receptor; type: functional
[7] = target: Hydroxycarboxylic acid receptor 2 (Homo sapiens, UniProt Q8TDS4)
Sequence of Hydroxycarboxylic acid receptor 2 (Q8TDS4 whole entry): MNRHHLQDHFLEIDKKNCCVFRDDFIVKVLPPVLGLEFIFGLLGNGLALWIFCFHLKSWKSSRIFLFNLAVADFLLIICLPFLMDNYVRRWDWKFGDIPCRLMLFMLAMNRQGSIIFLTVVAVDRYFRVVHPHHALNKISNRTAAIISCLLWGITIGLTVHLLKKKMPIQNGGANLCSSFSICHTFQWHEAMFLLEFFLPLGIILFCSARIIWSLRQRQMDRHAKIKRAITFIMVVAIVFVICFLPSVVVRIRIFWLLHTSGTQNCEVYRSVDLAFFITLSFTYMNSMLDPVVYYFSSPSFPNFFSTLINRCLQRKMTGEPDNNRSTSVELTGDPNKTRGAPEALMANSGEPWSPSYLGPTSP

[8] = target: Sodium channel protein type 5 subunit alpha (Homo sapiens, UniProt Q14524); type: functional, cell-based
Sequence of Sodium channel protein type 5 subunit alpha (Q14524 whole entry): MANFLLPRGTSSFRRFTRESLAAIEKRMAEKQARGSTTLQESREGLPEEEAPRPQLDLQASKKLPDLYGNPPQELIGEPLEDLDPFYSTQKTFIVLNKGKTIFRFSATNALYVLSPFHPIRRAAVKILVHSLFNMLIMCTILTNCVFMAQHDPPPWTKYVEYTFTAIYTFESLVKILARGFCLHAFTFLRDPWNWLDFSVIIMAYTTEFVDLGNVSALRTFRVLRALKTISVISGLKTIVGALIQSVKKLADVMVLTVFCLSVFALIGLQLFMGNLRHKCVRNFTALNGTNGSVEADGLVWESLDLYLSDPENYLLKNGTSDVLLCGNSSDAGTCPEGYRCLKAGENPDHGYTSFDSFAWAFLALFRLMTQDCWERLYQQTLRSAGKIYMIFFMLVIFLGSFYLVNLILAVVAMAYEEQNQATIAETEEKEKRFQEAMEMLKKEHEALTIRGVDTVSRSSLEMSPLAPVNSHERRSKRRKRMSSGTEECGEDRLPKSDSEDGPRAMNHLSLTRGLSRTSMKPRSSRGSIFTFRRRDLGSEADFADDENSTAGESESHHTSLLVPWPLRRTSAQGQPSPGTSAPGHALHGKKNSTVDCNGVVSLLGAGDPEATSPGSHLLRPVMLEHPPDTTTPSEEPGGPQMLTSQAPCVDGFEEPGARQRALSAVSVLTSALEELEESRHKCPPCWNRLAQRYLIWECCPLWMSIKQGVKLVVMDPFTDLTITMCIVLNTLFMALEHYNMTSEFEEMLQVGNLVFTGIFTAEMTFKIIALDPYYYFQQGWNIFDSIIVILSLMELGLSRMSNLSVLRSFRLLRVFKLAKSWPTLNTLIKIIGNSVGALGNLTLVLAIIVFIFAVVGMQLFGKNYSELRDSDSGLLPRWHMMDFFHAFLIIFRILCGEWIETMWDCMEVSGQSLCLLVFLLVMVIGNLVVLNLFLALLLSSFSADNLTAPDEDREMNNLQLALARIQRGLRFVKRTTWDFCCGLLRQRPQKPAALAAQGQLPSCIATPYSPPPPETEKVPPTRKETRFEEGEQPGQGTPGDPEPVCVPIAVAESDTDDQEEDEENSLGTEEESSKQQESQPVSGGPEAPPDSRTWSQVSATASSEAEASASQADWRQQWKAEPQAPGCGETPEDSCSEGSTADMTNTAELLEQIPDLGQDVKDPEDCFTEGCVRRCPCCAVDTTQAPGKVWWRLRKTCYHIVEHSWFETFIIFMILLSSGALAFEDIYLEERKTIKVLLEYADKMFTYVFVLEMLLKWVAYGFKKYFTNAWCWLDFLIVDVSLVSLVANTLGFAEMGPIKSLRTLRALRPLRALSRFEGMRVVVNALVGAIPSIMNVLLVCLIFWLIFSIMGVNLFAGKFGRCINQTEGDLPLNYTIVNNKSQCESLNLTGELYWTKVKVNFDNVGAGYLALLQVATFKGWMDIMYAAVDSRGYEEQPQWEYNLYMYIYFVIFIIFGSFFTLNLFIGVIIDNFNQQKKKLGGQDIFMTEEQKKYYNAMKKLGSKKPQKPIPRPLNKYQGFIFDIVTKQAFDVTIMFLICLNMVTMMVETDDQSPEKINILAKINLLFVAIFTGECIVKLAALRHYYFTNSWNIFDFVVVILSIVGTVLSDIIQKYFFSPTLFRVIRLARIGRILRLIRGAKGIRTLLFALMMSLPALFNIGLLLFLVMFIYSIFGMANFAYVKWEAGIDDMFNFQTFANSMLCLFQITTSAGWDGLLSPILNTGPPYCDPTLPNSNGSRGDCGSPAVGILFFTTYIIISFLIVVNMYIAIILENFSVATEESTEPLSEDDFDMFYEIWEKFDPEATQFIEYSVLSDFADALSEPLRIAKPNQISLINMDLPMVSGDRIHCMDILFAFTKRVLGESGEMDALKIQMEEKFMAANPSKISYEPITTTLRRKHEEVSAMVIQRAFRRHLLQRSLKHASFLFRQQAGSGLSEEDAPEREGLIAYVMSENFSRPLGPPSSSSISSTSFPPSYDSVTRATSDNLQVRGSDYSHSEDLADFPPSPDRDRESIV
Also: assay procedure not described here.

CCCN1C[C@H](CSC)C[C@@H]2c3cccc4[nH]cc(c34)C[C@H]21 [PERGOLIDE]
AC50 (B1 bradykinin receptor): > 30 µM
AC50 [1]: > 10 µM

COCCCN1CCC(NC(=O)c2cc(Cl)c(N)c3c2OCC3)CC1 [PRUCALOPRIDE]
AC50 (Adenosine receptor A1): > 30 µM

NS(=O)(=O)Cc1noc2ccccc12 [ZONISAMIDE]
AC50 (Androgen receptor [2]): > 10 µM

Cc1cn([C@H]2C=C[C@@H](CO)O2)c(=O)[nH]c1=O [STAVUDINE]
AC50 (Adenosine receptor A1): > 30 µM
AC50 (B1 bradykinin receptor): > 30 µM
AC50 [3]: > 10 µM
AC50 (Cannabinoid receptor 1): > 10 µM
AC50 [1]: > 10 µM
AC50 [4]: > 10 µM
AC50 [5]: > 10 µM
AC50 (Thromboxane A2 receptor): > 30 µM

CN1C(C(=O)Nc2ccccn2)=C(O)c2sc(Cl)cc2S1(=O)=O [LORNOXICAM]
AC50 (Androgen receptor [2]): > 30 µM

CCc1oc2ccccc2c1C(=O)c1cc(I)c(O)c(I)c1 [BENZIODARONE]
AC50 (Adenosine receptor A1): 18.2 µM

O=C(O[C@H]1C[C@H]2CC[C@@H](C1)[N+]21CCCC1)C(O)(c1ccccc1)c1ccccc1 [TROSPIUM]
AC50 (Androgen receptor [6]): > 30 µM

Cc1c(C(=O)NN2CCCCC2)nn(-c2ccc(Cl)cc2Cl)c1-c1ccc(Cl)cc1 [RIMONABANT]
AC50 (Androgen receptor [6]): > 30 µM
AC50 (Androgen receptor [2]): > 30 µM
AC50 (B1 bradykinin receptor): > 30 µM
AC50 [3]: > 10 µM
AC50 [4]: > 10 µM
AC50 [5]: > 10 µM
AC50 (Thromboxane A2 receptor): > 30 µM

CCOC(=O)[C@H](CCc1ccccc1)N[C@@H](C)C(=O)N1[C@H](C(=O)O)C[C@@H]2CCC[C@@H]21
AC50 (B1 bradykinin receptor): > 30 µM
AC50 [7]: > 10 µM
AC50 [8]: > 30 µM

CS(=O)(=O)c1ccc(C2=C(c3ccccc3)C(=O)OC2)cc1 [ROFECOXIB]
AC50 (B1 bradykinin receptor): > 30 µM
AC50 [3]: > 10 µM
AC50 (Cannabinoid receptor 1): > 10 µM
AC50 [1]: > 10 µM
AC50 [4]: > 10 µM
AC50 [5]: > 10 µM

Cn1nnc2c(C(N)=O)ncn2c1=O [TEMOZOLOMIDE]
AC50 (B1 bradykinin receptor): > 30 µM
AC50 [3]: > 10 µM
AC50 (Cannabinoid receptor 1): > 10 µM
AC50 [1]: > 10 µM
AC50 [4]: > 10 µM
AC50 [5]: > 10 µM
AC50 (Thromboxane A2 receptor): > 30 µM

CN(C)CCC(c1ccc(Cl)cc1)c1ccccn1 (centres undefined) [CHLORPHENIRAMINE]
AC50 (B1 bradykinin receptor): > 30 µM
AC50 [3]: 6.12 µM
AC50 (Cannabinoid receptor 1): > 10 µM
AC50 [4]: > 10 µM
AC50 [5]: > 10 µM
AC50 [8]: > 30 µM

c1cnc(N2CCN(Cc3ccc4c(c3)OCO4)CC2)nc1 [PIRIBEDIL]
AC50 (Thromboxane A2 receptor): > 30 µM

C[C@@H](O)[C@H]1C(=O)N2C(C(=O)O)=C(S[C@@H]3CN[C@H](C(=O)N(C)C)C3)[C@H](C)[C@H]12 [MEROPENEM]
AC50 (Thromboxane A2 receptor): > 300 µM

CC1(C)NC(=O)N(c2ccc([N+](=O)[O-])c(C(F)(F)F)c2)C1=O [NILUTAMIDE]
AC50 (Adenosine receptor A1): > 30 µM

CC1=C(C(=O)O)N2C(=O)[C@@H](NC(=O)[C@H](N)c3ccccc3)[C@H]2SC1 [CEPHALEXIN ANHYDROUS]
AC50 (B1 bradykinin receptor): > 30 µM
AC50 [7]: > 10 µM

C=CCc1ccccc1OCC(O)CNC(C)C (centres undefined) [ALPRENOLOL]
AC50 (Androgen receptor [6]): > 30 µM

COc1ccc(CC(C)(C)NC[C@H](O)c2cc(O)cc3c2OCC(=O)N3)cc1 [OLODATEROL]
AC50 (Androgen receptor [6]): > 30 µM
AC50 [8]: > 50 µM

c1ccc([C@H]2CN3CCSC3=N2)cc1 [LEVAMISOLE]
AC50 [8]: > 50 µM
AC50 (Thromboxane A2 receptor): > 30 µM

N[C@@H]1[C@H]2CN(c3nc4c(cc3F)c(=O)c(C(=O)O)cn4-c3ccc(F)cc3F)C[C@@H]12 [TROVAFLOXACIN]
AC50 (Androgen receptor [6]): > 30 µM
AC50 (Thromboxane A2 receptor): > 30 µM

CC[C@H]1OC(=O)[C@H](C)[C@@H](O[C@H]2C[C@@](C)(OC)[C@@H](O)[C@H](C)O2)[C@H](C)[C@@H](O[C@@H]2O[C@H](C)C[C@H](N(C)C)[C@H]2O)[C@](C)(O)C[C@@H](C)CN(C)[C@H](C)[C@@H](O)[C@]1(C)O [AZITHROMYCIN]
AC50 (Adenosine receptor A1): > 30 µM
AC50 (B1 bradykinin receptor): > 30 µM
AC50 [3]: > 10 µM
AC50 (Cannabinoid receptor 1): > 10 µM
AC50 [1]: > 10 µM
AC50 [4]: > 10 µM
AC50 [5]: > 10 µM
AC50 [8]: > 30 µM

CCOC(=O)[C@H](CCc1ccccc1)N[C@@H](C)C(=O)N1[C@H](C(=O)O)C[C@H]2CCCC[C@@H]21 [TRANDOLAPRIL]
AC50 (Adenosine receptor A1): > 30 µM

O=C(Cc1ccc(-c2ccccc2)cc1)Nc1ccccn1 [DIFENPIRAMIDE]
AC50 (Adenosine receptor A1): > 30 µM

CNC1Cc2ccccc2N(C)c2ccccc21 (centres undefined) [METAPRAMINE]
AC50 (Androgen receptor [6]): > 30 µM
AC50 (Thromboxane A2 receptor): > 30 µM

CC(C)C[C@H]1C(=O)N2CCC[C@H]2[C@]2(O)O[C@](NC(=O)[C@@H]3C=C4c5cccc6[nH]c(Br)c(c56)C[C@H]4N(C)C3)(C(C)C)C(=O)N12 [BROMOCRIPTINE]
AC50 (B1 bradykinin receptor): > 30 µM
AC50 (Thromboxane A2 receptor): > 30 µM

O=C(OCC(O)CO)c1ccccc1Nc1ccnc2cc(Cl)ccc12 (centres undefined) [GLAFENINE]
AC50 (Androgen receptor [6]): > 30 µM
AC50 (Thromboxane A2 receptor): 9.8 µM

Cc1cc(C#N)cc(C)c1Oc1nc(Nc2ccc(C#N)cc2)nc(N)c1Br [ETRAVIRINE]
AC50 (Adenosine receptor A1): 22.5 µM

C[C@]12CCC(=O)C=C1CC[C@@H]1[C@@H]2[C@@H](O)C[C@@]2(C)[C@H]1CC[C@]2(O)C(=O)CO [HYDROCORTISONE]
AC50 (Androgen receptor [2]): > 30 µM
AC50 (B1 bradykinin receptor): > 30 µM
AC50 [7]: > 10 µM

CCC1=C(C)CN(C(=O)NCCc2ccc(S(=O)(=O)NC(=O)N[C@H]3CC[C@H](C)CC3)cc2)C1=O [GLIMEPIRIDE]
AC50 (Adenosine receptor A1): > 30 µM

CC(=O)Nc1ccc(O)cc1 [ACETAMINOPHEN]
AC50 (Androgen receptor [6]): > 30 µM

C1CCC(C(CC2CCCCN2)C2CCCCC2)CC1 (centres undefined) [PERHEXILINE]
AC50 (Androgen receptor [6]): > 30 µM

NCC(CC(=O)O)c1ccc(Cl)cc1 (centres undefined) [BACLOFEN]
AC50 (B1 bradykinin receptor): > 30 µM
AC50 [3]: > 10 µM
AC50 (Cannabinoid receptor 1): > 10 µM
AC50 [4]: > 10 µM
AC50 [5]: > 10 µM
AC50 (Thromboxane A2 receptor): > 30 µM

Clc1ccc2nsnc2c1NC1=NCCN1 [TIZANIDINE]
AC50 (Androgen receptor [2]): > 30 µM
AC50 (B1 bradykinin receptor): > 30 µM
AC50 [7]: > 10 µM

CCC(C)n1ncn(-c2ccc(N3CCN(c4ccc(OCC5COC(Cn6cncn6)(c6ccc(Cl)cc6Cl)O5)cc4)CC3)cc2)c1=O (centres undefined) [ITRACONAZOLE]
AC50 (B1 bradykinin receptor): > 30 µM
AC50 [3]: > 10 µM
AC50 (Cannabinoid receptor 1): > 10 µM
AC50 [1]: > 10 µM
AC50 [4]: > 10 µM
AC50 [5]: > 10 µM
